What was measured:
[1] = system: TPA-induced mouse ear edema; assay: TPA-induced mouse ear edema test, single topical application; assay type: in vivo; conditions: Balb/c mice; for reduction of the TPA-induced ear edema: T+6 h
Method: Evaluation of the Anti-Inflammatory Activity of W3646 (Compound (I)) after Single Topical Application in the TPA-Induced Mouse Ear Edema Test on Balb/c Mice (TPA=Tetradecanoylphorbol Acetate)
The edema is induced by single application of 20 μl of TPA dissolved in acetone at 0.01%. […]
A positive control, β-methasone valerate (VdB), is also tested.
The thickness of the mouse ear is measured at T+6 h.

[2] = system: arachidonic acid-induced mouse ear edema; assay: Arachidonic acid-induced mouse ear edema test, single topical application; assay type: in vivo; conditions: Balb/c mice; for reduction of the arachidonic acid-induced ear edema: 20 μl on right ear
Method: Evaluation of the Anti-Inflammatory Activity of W3646 (Compound (I)) after Single Topical Application in the Arachidonic Acid-Induced Mouse Ear Edema Test on Balb/c Mice
The arachidonic acid is dissolved in a mixture of THF/methanol at 4%.
The test compound is dissolved in the solution of arachidonic acid (AA) at the final concentration, and tested at concentrations of 0.1, 0.3 and 1%.
20 μl of the solution are applied to the inner face of the right ear.
The thickness of the ear is measured at T+1 h, T+2 h and T+4 h.

In the case of CCCCC(=O)O[C@]1(C(=O)CO)[C@@H](C)C[C@H]2[C@@H]3CCC4=CC(=O)C=C[C@]4(C)[C@@]3(F)[C@@H](O)C[C@@]21C [betamethasone valerate, reference compound], the “reduction in the TPA-induced ear edema” value ([1]; 0.01% diluted in 0.01% TPA solution, ear thickness at T+6 h, ***) was 93%.

With COc1ccc(S(=O)(=O)N(c2cccc(/C(=C\C(=O)NO)c3cccnc3)c2)C(C)C)cc1 [W3646, E-3-[3-[N-(4-methoxybenzene-sulfonyl)-N-isopropylamino]phenyl]-3-(3-pyridyl)-propenohydroxamic acid] the “reduction of the arachidonic acid-induced ear edema” value ([2]; 0.1% topical in 4% arachidonic acid solution, NS) was 16%, the “reduction of the arachidonic acid-induced ear edema” value ([2]; 0.3% topical in 4% arachidonic acid solution, *) was 49% and the “reduction of the arachidonic acid-induced ear edema” value ([2]; 1% topical in 4% arachidonic acid solution, **) was 71%. For the same compound, the “reduction of the TPA-induced ear edema” value ([1]; 0.1% in 0.01% TPA solution, NS) was 26%, the “reduction of the TPA-induced ear edema” value ([1]; 0.3% in 0.01% TPA solution, **) was 53% and the “reduction of the TPA-induced ear edema” value ([1]; 1% in 0.01% TPA solution, ***) was 79%.

In the case of COc1ccc2c(c1)c(CC(=O)O)c(C)n2C(=O)c1ccc(Cl)cc1 [Indomethacin, reference compound], the “inhibition of the ear edema caused by arachidonic acid” value ([2]; indomethacin at 5%, single topical application in 4% arachidonic acid solution, ear thickness measured T+1 h, T+2 h, T+4 h) was 92%.

From patent publication US20090088460A1, “Administration of E-3[3-[N-(4-methoxybenzenesulfonyl)-N-isopropylamino]phenyl]-3-(3-pyridyl)propenohydroxamic acid for preventing and/or treating inflammatory cutaneous pathologies/afflictions” (GALDERMA RESEARCH &DEVELOPMENT, priority 2007, published 2009)
